Data published in PMC2680759, “Non-Invasive Molecular Imaging of Fibrosis Using a Collagen-Targeted Peptidomimetic of the Platelet Collagen Receptor Glycoprotein VI” (PLoS ONE, 2009).
One block for each molecule: values may come before it.

Experiments:
[1] = tested on: rat myocardial scar sections; assay: Ex vivo incubation of myocardial scar sections with radiotracers; settings: directly Tc-99m-labeled peptides, 120 MBq/ml RPMI, 2 h, p<0.05
Experimental: Rat aorta and rat myocardial scar sections were incubated in the presence of ^99mTc-biotin-collagelin, +/−9012 moAb, or ^99mTc-biotin-control peptide Pc (120 MBq/ml of RPMI) for 2 h. The tissues were then rinsed 5 times for periods of 1 minute, and exposed to the gamma-camera as well as to the instant imager for quantitative autoradiography (Instant Imager, Packard) for 15 h.

[2] = tested on: fibrotic myocardial infarction scar; format: in vivo, rat; settings: directly labeled tracer
Experimental: Myocardial infarction of the left ventricle was induced in rats as follows. Male Wistar rats (CERJ, France) were housed in a controlled environment and fed with a standard rat chow. Myocardial infarction of the left ventricle was induced by ligature of the left descending coronary artery performed under general anesthesia [1 mL.kg^−1 i.p. ketamine (Imalgene 500, Merial) and 0.5 mL.kg^−1 i.p. xylazine (Rompun, Bayer)] and positive pressure ventilation, as described. This protocol was performed under a permit from the French Veterinary Services Directorate.
(§1) Two types of control animals were used: healthy rats, and healthy rats which had undergone a simple throracotomy (sham-operated). ^99mTc-biotin-collagelin blood kinetics and biodistribution were investigated by counting blood samples (taken from a jugular catheter) for 6 h after i.v. injection, and organs (extracted after sacrifice) 2 h after injection in a gamma-counter, together with aliquots of the injected preparation (CobraII, Packard, Meriden, USA). Ex vivo myocardial labeling and isotopic imaging were performed 4 weeks after the coronary ligature (or throracotomy), when the lesions had had the time to heal.
For in vivo experiments, radiotracers (70 MBq) were administered i.v. to anesthetized animals (pentobarbital i.p. 6 mg/100 g BW, Ceva Santé Animale, France) within 2 h of radiolabeling. Scintigraphic images were obtained 0–2 h, 4 h, 6 h, 10 h and 24 h after injecting ^99mTc-streptavidin-biotin peptides and 0–3 h after injecting ^99mTc-biotinylated peptides. Planar and tomographic 1-h acquisitions were performed using a dedicated small animal γIMAGER system (Biospace Lab, Paris, France) equipped with 2 parallel low-energy high-resolution collimators (matrix 128×128, 15% energy window centered on 140 KeV). Tracer uptake in the left cardiac area was assessed visually. Two regions of interest were drawn on the scintigrams, over the heart and over the right lung. The mean activity (cpm) per pixel was determined in each region of interest. Then heart-to-lung activity ratios (HLR) were calculated on both planar and transversal tomographic images.

[3] = tested on: collagen fibers of the infarct scars; assay: Post mortem autoradiography of frozen myocardial sections; format: in vivo, rat; settings: directly Tc-99m-labeled peptides, frozen myocardial sections
Experimental: After sacrificing the animals, the heart was removed and frozen, then 20-micrometer thick myocardial sections were cut perpendicular to the short axis of the ventricles in a cryostat, and exposed in a radioimager for 16 h. According to calibration studies performed with activity standards of tissue-equivalent homogenates, 50 counts/mm^2 of ^99m Tc-labeled tracers corresponded to ∼210 kBq/mg in autoradiography. The myocardial sections used for autoradiography, and contiguous heart sections (5 µm) fixed in acetone (−20°C), were stained with hematoxylin-eosin, Masson's trichrome and picrosirius red to determine the location and extent of the fibrotic myocardial scarring.

[4] = in vivo; settings: rat, iv
Experimental: as §1

[5] = molecular target: murine laminin (murine) (UniProt P19137); assay: SPR; collagelin and laminin
[6] = molecular target: 9O12.2 IgG; assay: SPR, 9O12.2 IgG injected over immobilized B-collagelin; format: binding
Experimental: 9O12.2 IgG was injected over biotin-peptides coupled to an SA-sensorchip in a Biacore 2000 instrument. […] In some experiments, the peptide was reduced by DTT on the sensor chip before the IgG was injected. Competition experiments were performed by mixing the IgG with recombinant soluble GPVI (25 µg.mL^−1). Collagen binding to the peptide was analyzed by injecting type-I collagen (200 µg.mL^−1) onto the peptide-coated sensorchip. Conversely, biotin-peptides (125, 250, 500 and 1000 µg.mL^−1) were perfused over fibrillar collagen immobilized on a CM5-sensorchip.

[7] = molecular target: fibrillar type I collagen (Homo sapiens, UniProt P02452+P08123); assay: Solid phase assay on collagen-coated microtitration plates; format: binding; settings: n = 3
Experimental: Biotin-peptides (50 µg.mL^−1) were incubated on microtitration wells, coated with 1 µg of type-I collagen, convulxin, collagen related peptides, bovine fibrinogen, human fibronectin, rat vitronectin, murine laminin or bovine serum albumin. Bound peptides were detected using HRP-coupled extravidin and the HRP substrate O-phenyl-dianisidine.

[8] = tested on: collagen in sections of rat aorta and tail tendon; assay: Histochemical analysis of rat aorta and tail tendon sections; settings: frozen sections of rat aorta and tail tendon, biotin-peptide 200 µg/mL, HRP-coupled streptavidin
Experimental: Sections were counter-stained with hematoxylin-eosin (Merck). Collagen was stained using picrosirius red. Sections ([…]) of rat tail tendon were processed as above.

Chain of fibrillar type I collagen (P02452 162-1218 limits assumed): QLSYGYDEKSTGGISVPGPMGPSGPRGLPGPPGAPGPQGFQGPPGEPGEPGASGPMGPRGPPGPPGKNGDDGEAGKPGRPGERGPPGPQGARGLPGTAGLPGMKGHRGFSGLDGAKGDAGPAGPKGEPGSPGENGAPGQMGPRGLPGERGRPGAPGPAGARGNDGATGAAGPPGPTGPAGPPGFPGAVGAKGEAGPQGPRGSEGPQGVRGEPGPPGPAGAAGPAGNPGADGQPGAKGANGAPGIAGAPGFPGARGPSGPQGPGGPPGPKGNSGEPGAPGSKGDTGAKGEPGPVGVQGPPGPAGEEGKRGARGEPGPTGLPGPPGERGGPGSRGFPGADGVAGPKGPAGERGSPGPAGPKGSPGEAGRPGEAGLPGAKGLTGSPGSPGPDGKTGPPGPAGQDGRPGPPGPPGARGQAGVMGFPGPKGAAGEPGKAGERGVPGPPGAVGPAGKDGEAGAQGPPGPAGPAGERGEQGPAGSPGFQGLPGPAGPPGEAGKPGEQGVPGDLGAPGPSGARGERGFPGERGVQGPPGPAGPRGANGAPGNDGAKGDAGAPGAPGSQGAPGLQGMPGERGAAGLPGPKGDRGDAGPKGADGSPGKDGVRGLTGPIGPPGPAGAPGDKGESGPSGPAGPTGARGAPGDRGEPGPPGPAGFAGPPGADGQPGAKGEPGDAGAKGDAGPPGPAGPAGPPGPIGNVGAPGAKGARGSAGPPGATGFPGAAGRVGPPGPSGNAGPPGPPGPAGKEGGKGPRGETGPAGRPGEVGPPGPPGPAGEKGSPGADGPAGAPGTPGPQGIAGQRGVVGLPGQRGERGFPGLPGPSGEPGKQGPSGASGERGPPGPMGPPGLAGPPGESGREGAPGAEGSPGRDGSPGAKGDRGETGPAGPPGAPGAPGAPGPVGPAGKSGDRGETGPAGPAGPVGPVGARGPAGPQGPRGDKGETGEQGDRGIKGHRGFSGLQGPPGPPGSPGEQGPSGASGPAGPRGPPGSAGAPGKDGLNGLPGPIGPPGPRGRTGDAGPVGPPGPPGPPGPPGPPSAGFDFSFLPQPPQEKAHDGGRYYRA
Chain of fibrillar type I collagen (P08123 80-1119 limits assumed): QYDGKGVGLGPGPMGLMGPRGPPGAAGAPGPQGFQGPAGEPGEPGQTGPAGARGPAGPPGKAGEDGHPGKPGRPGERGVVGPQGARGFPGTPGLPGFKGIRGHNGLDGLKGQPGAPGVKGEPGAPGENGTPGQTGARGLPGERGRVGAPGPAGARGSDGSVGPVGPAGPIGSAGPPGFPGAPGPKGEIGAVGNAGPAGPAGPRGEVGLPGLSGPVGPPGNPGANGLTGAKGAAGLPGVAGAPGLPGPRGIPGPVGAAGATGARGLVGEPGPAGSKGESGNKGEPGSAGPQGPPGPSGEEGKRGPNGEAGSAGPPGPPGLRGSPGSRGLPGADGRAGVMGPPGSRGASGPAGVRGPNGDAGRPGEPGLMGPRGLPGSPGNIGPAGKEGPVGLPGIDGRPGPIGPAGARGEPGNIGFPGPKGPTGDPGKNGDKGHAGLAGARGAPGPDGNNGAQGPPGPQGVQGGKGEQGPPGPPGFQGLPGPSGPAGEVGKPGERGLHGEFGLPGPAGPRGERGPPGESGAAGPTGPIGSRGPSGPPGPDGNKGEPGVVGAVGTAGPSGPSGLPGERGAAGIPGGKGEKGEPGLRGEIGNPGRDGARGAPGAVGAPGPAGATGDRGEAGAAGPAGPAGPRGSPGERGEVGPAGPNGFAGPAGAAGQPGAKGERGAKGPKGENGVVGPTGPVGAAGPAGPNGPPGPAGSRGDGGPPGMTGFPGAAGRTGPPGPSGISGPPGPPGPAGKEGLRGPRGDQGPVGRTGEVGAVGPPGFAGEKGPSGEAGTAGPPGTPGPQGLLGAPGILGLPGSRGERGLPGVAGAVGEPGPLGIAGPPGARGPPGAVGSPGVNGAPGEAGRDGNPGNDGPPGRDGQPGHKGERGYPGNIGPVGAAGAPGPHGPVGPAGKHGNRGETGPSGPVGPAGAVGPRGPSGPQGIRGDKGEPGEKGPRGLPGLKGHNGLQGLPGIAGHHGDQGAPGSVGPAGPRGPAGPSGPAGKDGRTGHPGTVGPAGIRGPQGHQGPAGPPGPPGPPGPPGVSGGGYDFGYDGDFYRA

Molecule: CSCC[C@@H]1NC(=O)[C@H](C(C)C)NC(=O)[C@H](CCCNC(=N)N)NC(=O)CNC(=O)[C@@H]2CCCN2C(=O)[C@@H](NC(=O)CNC(=O)[C@H](CO)NC(=O)CNC(=O)[C@H](CO)NC(=O)CCCC[C@@H]2SC[C@@H]3NC(=O)N[C@@H]32)CSSC[C@@H](C(N)=O)NC(=O)[C@@H]2CCCN2C(=O)CNC(=O)[C@H](CCC(=O)O)NC(=O)[C@H](CC(=O)O)NC(=O)[C@H](CC(=O)O)NC(=O)CNC(=O)[C@H](CC(C)C)NC(=O)[C@H](Cc2c[nH]cn2)NC(=O)[C@H](CC(C)C)NC(=O)CNC(=O)[C@H](Cc2c[nH]cn2)NC1=O [^99mTc-collagelin, metal not drawn]
Ex vivo uptake in scarred tissue of myocardial sections [1]: accumulated in the scarred tissue
Tracer uptake in the cardiac area, sham-operated rats ([2]; n = 6): No tracer uptake
Probe uptake in the cardiac area, rats with MI scars ([2]; planar and SPECT images two hours after injection, all but one of the rats, n = 8): significant uptake
Autoradiographic labeling of the scar [3]: coincided with the collagen fibers of the scars
Blood clearance half life [4]: 5 ± 0.5 min
tissue uptake at 2 h ([4]; 1 nmol, total radioactivity): 0.36 %ID/g

Kd [5]: 18.3 µM
Molecule: B-collagelin (collagelin conjugated with biotin) (peptide)

Kd ([6]; read-out: KD of 9O12.2 IgG binding to immobilized B-collagelin, SPR, Biacore 2000, biotin-peptide on SA-sensorchip, IgG 1.25 to 10 µg/mL, KD = koff/kon): 1 µM
Binding to collagen-coated plates ([7]; peptide 50 µg/mL, HRP-coupled extravidin detection): bound
Molecule: SGSGCPGRVMHGLHLGDDEGPC (disulfide) [B-collagelin]
Histochemical staining of tissue collagen [8]: Positive and specific brown staining

Effect on binding of 9O12.2 IgG to collagelin ([6]; SPR competition, IgG 5 µg/ml mixed with recombinant soluble GPVI 25 µg/ml): inhibited
Inhibition of B-collagelin binding to collagen-coated plates ([7]; competitor 50 µg/mL mixed with B-collagelin 50 µg/mL): completely inhibited
B1: GPVI-Fc: soluble recombinant GPVI, extracellular part of GPVI fused to the IgG Fc domain (protein)
chain: QSGPLPKPSLQALPSSLVPLEKPVTLRCQGPPGVDLYRLEKLSSSRYQDQAVLFIPAMKRSLAGRYRCSYQNGSLWSLPSDQLELVATGVFAKPSLSAQPGPAVSSGGDVTLQCQTRYGFDQFALYKEGDPAPYKNPERWYRASFPIITVTAAHSGTYRCYSFSSRDPYLWSAPSDPLELVVTGTSVTPSRLPTEPPSPVAEFSEATAELTVSFTNEVFTTETSRSITASPKESDSPAGPARQYYTK
modifications: left off: Fc (IgG), end not stated, kept
notes: soluble recombinant GPVI, extracellular part of GPVI fused to the IgG Fc domain
